Assay results taken from US4996235A, “3,4-diphenylbutanamines” (Eli Lilly and Company, priority 1987, dated 1991).
Where a name gives a salt, the structure may show the parent alone.

Key:
[1] = tested on: norepinephrine uptake (rat cerebral cortex synaptosomes); assay: Synaptosomal uptake of 14C-l-norepinephrine (14C-NE), inhibition in vitro; assay type: biochemical, Male Sprague-Dawley rats; conditions: rat cortical synaptosomes, 37° C., 5 min, 100 nM 14C-NE
Description: (§1) This general procedure is set forth by Wong et al., in Drug Development Research 6:397-403 (1985).
(§2) Male Sprague-Dawley rats (110-150 g) from Harlan Industries (Cumberland, Ind.) were fed a Purina Chow ad libitum for at least 3 days before being used in the studies. Rats were killed by decapitation. Whole brains were removed and dissected. Cerebral cortex was homogenized in 9 volumes of a medium containing 0.32 M sucrose and 10 mM glucose. Crude synaptosomal preparations were isolated after differential centrifugation at 1,000 g for 10 min. and 17,000 g for 28 min. The final pellets were suspended in the same medium and kept in ice until use within the same day.
(§3) Synaptosomal uptake of ^3 H-serotonin(^3 H-5-hydroxytryptaine, ^3 H-5HT) and ^14 C-l-norepinephrine (^14 C-NE) was determined as follows. Cortical synaptosomes (equivalent to 1 mg of protein) were incubated at 37° C. for 5 min in 1 ml of Krebs-bicarbonate medium containing also 10 mM glucose, 0.1 mM iproniazid, 1 mM ascorbic acid, 0.17 mM EDTA, 50 nM ^3 H-5HT and 100 nM ^14 C-NE. The reaction mixture was immediately diluted with 2 ml of ice-chilled Krebs-bicarbonate buffer and filtered under vacuum with a cell harvester (Brandel, Gaithersburg, Md.). […] Radioactivity was measured by a liquid scintillation spectrophotometer. […]

[2] = tested on: 5HT uptake (rat cerebral cortex synaptosomes); assay: Synaptosomal uptake of 3H-serotonin (3H-5HT), inhibition in vitro; assay type: biochemical, Male Sprague-Dawley rats; conditions: rat cortical synaptosomes, 37° C., 5 min, 50 nM 3H-5HT
Description: as §1, §2, §3

| SMILES | IC50 [1] | IC50 [2] |
| --- | --- | --- |
| CNCCC(Cc1ccc(C(F)(F)F)cc1)c1ccccc1 (stereo not shown) [Example 1, N-Methyl-3-phenyl-4-(4-trifluoromethylphenyl)-butanaminium chloride] | 7600 nM | 250 nM |
| CNCCC(Cc1ccccc1C)c1ccccc1 (stereo not shown) [Example 2, N-Methyl-3-phenyl-4-(2-methylphenyl)-butanaminium tosylate] | 100 nM | 330 nM |
